In ChEMBL document CHEMBL3779853, “Target β-catenin/CD44/Nanog axis in colon cancer cells by certain N'-(2-oxoindolin-3-ylidene)-2-(benzyloxy)benzohydrazides” (Bioorg Med Chem Lett, 2016):
Activity calls are given as the source filed them. The rule behind the calls is not given here.

Key:
HT-29 = assay: Cytotoxicity against low CD44 expressing human HT-29 cells after 48 hrs by WST-1 assay; type: functional, cell-based
LoVo [1] = assay: Cytotoxicity against high CD44 expressing human LoVo cells after 48 hrs by WST-1 assay; type: functional, cell-based
TCF4-CTNNB1 complex = target: T1, TCF4-CTNNB1 complex (Homo sapiens, UniProt P35222+Q9NQB0); assay: Inhibition of human GST tagged Tcf4/beta catenin interaction after 2 hrs using fluorescent AP Attophos substrate by ELISA analysis; type: protein-complex assay
T1 sequence (P35222 whole entry): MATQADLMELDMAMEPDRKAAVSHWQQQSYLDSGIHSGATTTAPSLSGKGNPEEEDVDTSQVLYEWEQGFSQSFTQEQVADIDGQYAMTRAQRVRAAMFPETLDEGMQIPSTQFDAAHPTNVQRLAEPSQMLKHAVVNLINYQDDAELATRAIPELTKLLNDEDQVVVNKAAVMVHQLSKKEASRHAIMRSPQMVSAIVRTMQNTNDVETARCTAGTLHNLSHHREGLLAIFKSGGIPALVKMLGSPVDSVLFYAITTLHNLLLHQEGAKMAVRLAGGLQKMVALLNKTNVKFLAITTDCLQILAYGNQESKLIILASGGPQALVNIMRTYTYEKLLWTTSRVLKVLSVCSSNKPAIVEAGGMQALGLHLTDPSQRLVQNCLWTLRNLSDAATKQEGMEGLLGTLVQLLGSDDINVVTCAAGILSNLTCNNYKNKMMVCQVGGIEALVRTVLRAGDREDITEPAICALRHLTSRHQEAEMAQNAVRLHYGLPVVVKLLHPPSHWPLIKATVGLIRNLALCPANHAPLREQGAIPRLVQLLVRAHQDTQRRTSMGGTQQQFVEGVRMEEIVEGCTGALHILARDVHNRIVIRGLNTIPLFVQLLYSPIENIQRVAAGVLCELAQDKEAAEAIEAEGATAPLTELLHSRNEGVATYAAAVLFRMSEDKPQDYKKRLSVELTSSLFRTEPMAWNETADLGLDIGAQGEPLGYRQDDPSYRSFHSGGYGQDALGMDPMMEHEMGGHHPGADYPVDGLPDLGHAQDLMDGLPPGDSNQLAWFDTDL
T1 sequence (P15884 whole entry): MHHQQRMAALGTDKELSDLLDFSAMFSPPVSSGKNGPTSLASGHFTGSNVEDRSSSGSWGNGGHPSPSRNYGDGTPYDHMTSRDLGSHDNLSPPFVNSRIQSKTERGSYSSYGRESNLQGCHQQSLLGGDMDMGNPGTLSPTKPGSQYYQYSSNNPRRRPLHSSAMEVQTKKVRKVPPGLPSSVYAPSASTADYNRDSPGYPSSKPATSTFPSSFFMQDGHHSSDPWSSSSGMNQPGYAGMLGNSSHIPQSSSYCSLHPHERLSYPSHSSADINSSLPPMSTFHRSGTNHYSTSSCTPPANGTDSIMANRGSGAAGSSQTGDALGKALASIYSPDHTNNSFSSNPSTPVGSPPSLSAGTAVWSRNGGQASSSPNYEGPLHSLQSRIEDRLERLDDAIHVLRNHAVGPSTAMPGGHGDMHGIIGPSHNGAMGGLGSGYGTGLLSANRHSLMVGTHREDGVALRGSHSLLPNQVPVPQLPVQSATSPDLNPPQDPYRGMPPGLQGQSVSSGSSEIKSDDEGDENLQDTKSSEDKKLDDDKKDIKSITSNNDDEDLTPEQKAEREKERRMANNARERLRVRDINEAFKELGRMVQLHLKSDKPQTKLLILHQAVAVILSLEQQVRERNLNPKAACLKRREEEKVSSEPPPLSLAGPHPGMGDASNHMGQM

[2] = Inhibition of Wnt/beta catenin pathway (unknown origin) in human LoVo cells transfected with TCF/LEF reporter plasmid assessed as GFP expression at 2.5 uM after 48 hrs by flow cytometric analysis (reference value: 3.7%); type: cell-based; set-up: scale not given: the % may be the effect or the level left
[3] = Inhibition of Wnt/beta catenin pathway (unknown origin) in human LoVo cells transfected with TCF/LEF reporter plasmid assessed as GFP expression at 5 uM after 48 hrs by flow cytometric analysis (reference value: 3.7%); type: cell-based; set-up: scale not given: the % may be the effect or the level left
[4] = Inhibition of Wnt/beta catenin pathway (unknown origin) in human LoVo cells transfected with TCF/LEF reporter plasmid assessed as GFP expression at 10 uM after 48 hrs by flow cytometric analysis (reference value: 3.7%); type: cell-based; set-up: scale not given: the % may be the effect or the level left
[5] = Inhibition of Wnt/beta catenin pathway assessed as downregulation of CD44-mediated Nanog expression in human LoVo cells at 2.5 to 10 uM after 48 hrs by RT-PCR analysis; type: cell-based
LoVo [6] = assay: Downregulation of Sox2 expression in human LoVo cells at 10 uM after 48 hrs by RT-PCR analysis; type: functional, cell-based
LoVo [7] = assay: Downregulation of Oct-4 expression in human LoVo cells at 10 uM after 48 hrs by RT-PCR analysis; type: functional, cell-based
[8] = Cell cycle arrest in high CD44 expressing human […] cells assessed as accumulation at S phase at 5 to 10 uM; type: functional, cell-based
[9] = Cell cycle arrest in high CD44 expressing human […] cells assessed as accumulation at G2 phase at 5 to 10 uM; type: functional, cell-based
[10] = Cell cycle arrest in high CD44 expressing human […] cells assessed as accumulation at M phase at 5 to 10 uM; type: functional, cell-based
[11] = Cell cycle arrest in low CD44 expressing human […] cells assessed as accumulation at S phase at 5 to 10 uM; type: functional, cell-based
[12] = Cell cycle arrest in low CD44 expressing human […] cells assessed as accumulation at G2 phase at 5 to 10 uM; type: functional, cell-based
[13] = Cell cycle arrest in low CD44 expressing human […] cells assessed as accumulation at M phase at 5 to 10 uM; type: functional, cell-based
[14] = Homo sapiens, HT-29, 48 h, read-out: IC50

Row | SMILES | IC50 (HT-29; ht-29) | IC50 (LoVo [1]) [µM] | IC50 (HT-29; [14]) [µM] | IC50 (TCF4-CTNNB1 complex) [µM] | also measured
1 | O=C(N/N=C1\C(=O)N(CN2CCOCC2)c2ccccc21)c1ccccc1OCc1ccccc1 | Not Active | 16.3 |  |  | 
2 | CCCCN(CCCC)CN1C(=O)/C(=N\NC(=O)c2ccccc2OCc2ccccc2)c2ccccc21 |  | 27.2 | 203 |  | 
3 | CCCN(CCC)CN1C(=O)/C(=N\NC(=O)c2ccccc2OCc2ccccc2)c2ccccc21 |  | 19.8 | 95.5 |  | 
4 | CCCC(=O)c1cc2c(c(O)c1C)C(=O)C(=O)c1c(O)cccc1-2 |  |  |  | 2.4 | 
5 | COc1c(CC(C)OC(=O)Oc2ccc(O)cc2)c2c3c(CC(C)OC(=O)c4ccccc4)c(OC)c(=O)c4c(O)cc(OC)c(c5c(OC)cc(O)c(c1=O)c52)c43 (centres undefined) |  |  |  | 3.2 | 
6 | O=C(N/N=C1\C(=O)N(CN2CCCCC2)c2ccccc21)c1ccccc1OCc1ccccc1 | Not Active | 22.4 |  |  | 
7 | COc1c(CC(C)OC(=O)c2c(C)cc(O)cc2O)c2c3c(CC(C)OC(=O)c4c(C)cc(O)cc4O)c(OC)c(=O)c4c(O)cc(OC)c(c5c(OC)cc(O)c(c1=O)c52)c43 (centres undefined) |  |  |  | 4.1 | 
8 | CN(C)CN1C(=O)/C(=N\NC(=O)c2ccccc2OCc2ccccc2)c2ccccc21 |  | 12.9 | 48.8 |  | 
9 | COC(=O)c1c(C)cc2c(c1O)[C@@]1(O)C(=O)c3cc4c(c(O)c3C(=O)[C@]1(OC)[C@H](O)C2)C(=O)C=C(NC1O[C@H](C)[C@@H](OC)[C@H](O)[C@@H]1OC)C4=O (some centres undefined) |  |  |  | 0.64 | 
10 | CN(CCO)CN1C(=O)/C(=N\NC(=O)c2ccccc2OCc2ccccc2)c2ccccc21 | Not Active | 22.4 |  |  | 
11 | CN(Cc1ccccc1)CN1C(=O)/C(=N\NC(=O)c2ccccc2OCc2ccc(Cl)cc2)c2ccccc21 | Not Active | 17.2 |  |  | 
12 | CN(Cc1ccccc1)CN1C(=O)/C(=N\NC(=O)c2ccccc2OCc2ccccc2)c2ccccc21 | Not Active | 24.9 |  |  | Activity [2]: 2.2%; Activity [3]: 2%; Activity [4]: 1.7%; Activity [5]: Dose-dependent effect; Activity (LoVo [6]): inactive; Activity (LoVo [7]): inactive; Activity [8]: Active; Activity [9]: Active; Activity [10]: Active; Activity [11]: inactive; Activity [12]: inactive; Activity [13]: inactive
13 | CCN(CC)CN1C(=O)/C(=N\NC(=O)c2ccccc2OCc2ccccc2)c2ccccc21 |  | 14.8 | 84.8 |  | 
